Experimental findings from patent publication US9409943B2 (Bristol-Myers Squibb Company, priority 2012, dated 2016) are described below.

Read-outs that look alike come from different tables or passages of the source.

For experiment [1], the system named is HCV GT1a(H77) replicon. The experiment can be described thus: HCV replicon luciferase reporter assay, genotype 1a. It counts as cell-based, HCV genotype 1a. The following applies: Hepatitis C virus, 72 h, HUH-7 cells, 3 days incubation. An excerpt: A stable HCV GT1a(H77) replicon luciferase reporter cell line (Yanagi M, Purcell R H, Emerson S U, et al. Transcripts from a single full-length cDNA clone of hepatitis C virus are infectious when directly transfected into the liver of a chimpanzee. Proc Natl Acad Sci USA 1997; 94(16):8738-8743) was generated as described previously for the genotype 1b(Con1) replicon luciferase cell line. The replicon construct was modified by introducing mutations into the genes encoding the NS3 helicase domain (proline replaced by leucine at position 1496) and NS5A (serine to isoleucine at position 2204) to improve replication in cell culture.
(§1) HCV replicon luciferase assays were developed to monitor the inhibitory effects of compounds described in the disclosure on HCV genotypes 1a and 1b viral replication. HUH-7 cells, constitutively expressing the HCV replicon, were grown in Dulbecco's Modified Eagle Media (DMEM) (Gibco-BRL) containing 10% Fetal calf serum (FCS) (Sigma) and 1 mg/mL G418 (Gibco-BRL). Compounds were serially diluted 3 folds in DMSO for a twenty-point titration and subsequently transferred to sterile 384-well tissue-culture treated plates (Corning cat #3571). The plates were then seeded with 50 μL of cells at a density of 3.0×10^3 cells/well in DMEM containing 4% FCS (final DMSO concentration at 0.5%). After 3 days incubation at 37° C., cells were analyzed for Renilla Luciferase activity using the EnduRen as substrate (Promega cat #E6485). The EnduRen substrate was diluted in DMEM and then added to the plates to a final concentration of 7.5 μM. The plates were incubated for 2 hrs at 37° C. and then read immediately for 30 seconds with Viewlux Imager (PerkinElmer) using a luminescence program. To assess cytotoxicity of compounds, CC50 values were generated by multiplexing the EnduRen-containing plates with Cell Titer-Blue (Promega, cat # G8082). Cell-Titer Blue (3 μL) was added to each well and incubated for 8 hrs at 37° C. The fluorescence signal from each well was read, with an excitation wavelength at 525/10 nm and an emission wavelength of 598/10 nm, using the Viewlux Imager.
(§2) The EC50 values for compounds were calculated by using a four-parameter logistic equation: y=A+((B−A)/(1+((C/x)^D))), where A and B denotes minimal and maximal % inhibition, respectively, C is the EC50, D is the hill slope and x represents compound concentration.

In experiment [2] the test system is HCV GT1b(Con1) replicon. The experiment can be described thus: HCV replicon luciferase reporter assay, genotype 1b. The following applies: Hepatitis C virus, 72 h, HUH-7 cells, 3 days incubation. It counts as cell-based, HCV genotype 1b.
From the text: An HCV GT1b(Con1) replicon cell system was established as described by Lohmann V, Korner F, Koch J, Herian U, Theilmann L, Bartenschlager R., Science 285(5424):110-3 (1999) and modified to introduce a luciferase reporter (Krieger N, Lohmann V, and Bartenschlager R, J. Virol. 75(10):4614-4624 (2001)). cDNA encoding a humanized form of the Renilla luciferase gene, and a linker sequence fused directly to the 3′-end of the luciferase gene were introduced into the replicon construct using an Asc1 restriction site located in core, directly upstream of the neomycin marker gene. The adaptive mutation at position 1179 (serine to isoleucine) was also introduced (Blight K J, Kolykhalov, A A, Rice, C M, Science 290(5498):1972-1974). A stable cell line constitutively expressing this HCV replicon construct was generated by first linearizing plasmid DNAs with ScaI. RNA transcripts were synthesized in vitro using the T7 MegaScript transcription kit (Ambion, Austin, Tex.) according to manufacturer's directions. In vitro transcripts of the cDNA were transfected into the human hepatoma cell line, HUH-7. […] Resulting cell lines were characterized for positive and negative strand RNA production and protein production over time.
as §1, §2

In the case of `CC[C@@H]1C[C@@H](C)CC/C=C\[C@@H]2C[C@@]2(C(=O)NS(=O)(=O)C2(C)CC2)NC(=O)[C@@H]2C[C@@H](OC(=O)N3Cc4cccc(F)c4C3)CN2C(=O)[C@H]1NC(=O)OC(C)(C)C` [Compound 1312, (2R,6S,7R,9S,13aS,14aR,16aS,Z)-6-((tert-butoxycarbonyl)amino)-7-ethyl-9-methyl-14a-(((1-methylcyclopropyl)sulfonyl)carbamoyl)-5,16-dioxo-1,2,3,5,6,7,8,9,10,11,13a,14,14a,15,16,16a-hexadecahydrocyclopropa[e]pyrrolo[1,2-a][1,4]diazacyclopentadecin-2-yl 4-fluoroisoindoline-2-carboxylate], the EC50 is 5.01 to 35 nM in experiment [1] (read-out: LE_1a (EC50, range)) and 1.01 to 5 nM in experiment [2] (read-out: LE_1b (EC50, range)).
For `C[C@@H]1CC/C=C\[C@@H]2C[C@@]2(C(=O)NS(=O)(=O)C2(CF)CC2)NC(=O)[C@@H]2C[C@@H](OC(=O)c3ccccc3C(F)(F)F)CN2C(=O)[C@@H](NC(=O)OC(C)(C)C(F)(F)F)[C@H](C)C1` [Compound 1002, (2R,6S,7R,9R,13aS,14aR,16aS,Z)-14a-(((1-(fluoromethyl)cyclopropyl)sulfonyl)carbamoyl)-7,9-dimethyl-5,16-dioxo-6-((((1,1,1-trifluoro-2-methylpropan-2-yl)oxy)carbonyl)amino)-1,2,3,5,6,7,8,9,10,11,13a,14,14a,15,16,16a-hexadecahydrocyclopropa[e]pyrrolo[1,2-a][1,4]diazacyclopentadecin-2-yl 2-(trifluoromethyl)benzoate], in that order: 5.01 to 35 nM and 1.01 to 5 nM.
For `COc1ccc(C(=O)O[C@@H]2C[C@H]3C(=O)N[C@]4(C(=O)NS(=O)(=O)C5(C)CC5)C[C@H]4/C=C\CC[C@@H](C)C[C@@H](C)[C@H](NC(=O)OC(C)(C)C(F)(F)F)C(=O)N3C2)cc1` [Compound 1005, (2R,6S,7R,9R,13aS,14aR,16aS,Z)-7,9-dimethyl-14a-(((1-methylcyclopropyl)sulfonyl)carbamoyl)-5,16-dioxo-6-((((1,1,1-trifluoro-2-methylpropan-2-yl)oxy)carbonyl)amino)-1,2,3,5,6,7,8,9,10,11,13a,14,14a,15,16,16a-hexadecahydrocyclopropa[e]pyrrolo[1,2-a][1,4]diazacyclopentadecin-2-yl 4-methoxybenzoate], the EC50 in experiment [1] (read-out: LE_1a (EC50)) is 1.15 nM; in experiment [1] (read-out: LE_1a (EC50, range)), 1.01 to 5 nM; in experiment [2] (read-out: LE_1b (EC50)), 0.75 nM; in experiment [2] (read-out: LE_1b (EC50, range)) it was 0.51 to 1 nM.
As to `C[C@@H]1CC/C=C\[C@@H]2C[C@@]2(C(=O)NS(=O)(=O)C2(CF)CC2)NC(=O)[C@@H]2C[C@@H](OC(=O)c3cccc(F)c3)CN2C(=O)[C@@H](NC(=O)OC(C)(C)C(F)(F)F)[C@H](C)C1` [Compound 1010, (2R,6S,7R,9R,13aS,14aR,16aS,Z)-14a-(((1-(fluoromethyl)cyclopropyl)sulfonyl)carbamoyl)-7,9-dimethyl-5,16-dioxo-6-((((1,1,1-trifluoro-2-methylpropan-2-yl)oxy)carbonyl)amino)-1,2,3,5,6,7,8,9,10,11,13a,14,14a,15,16,16a-hexadecahydrocyclopropa[e]pyrrolo[1,2-a][1,4]diazacyclopentadecin-2-yl 3-fluorobenzoate], the EC50 in experiment [1] (read-out: LE_1a (EC50, range)) was 5.01 to 35 nM; in experiment [2] (read-out: LE_1b (EC50, range)) it was 1.01 to 5 nM.
For `C[C@@H]1CC/C=C\[C@@H]2C[C@@]2(C(=O)NS(=O)(=O)C2(CF)CC2)NC(=O)[C@@H]2C[C@@H](OC(=O)c3ccc4ccccc4c3)CN2C(=O)[C@@H](NC(=O)OC(C)(C)C(F)(F)F)[C@H](C)C1` [Compound 1006], in that order: 1.01 to 5 nM and 1.01 to 5 nM.
For `C[C@@H]1CC/C=C\[C@@H]2C[C@@]2(C(=O)NS(=O)(=O)C2(C)CC2)NC(=O)[C@@H]2C[C@@H](OC(=O)c3ccc4c(c3)OCCO4)CN2C(=O)[C@@H](NC(=O)OC(C)(C)C)[C@H](C)C1` [Compound 1013, (2R,6S,7R,9R,13aS,14aR,16aS,Z)-6-((tert-butoxycarbonyl)amino)-7,9-dimethyl-14a-(((1-methylcyclopropyl)sulfonyl)carbamoyl)-5,16-dioxo-1,2,3,5,6,7,8,9,10,11,13a,14,14a,15,16,16a-hexadecahydrocyclopropa[e]pyrrolo[1,2-a][1,4]diazacyclopentadecin-2-yl 2,3-dihydrobenzo[b][1,4]dioxine-6-carboxylate], in that order: 1.01 to 5 nM and 1.01 to 5 nM.
For `CC[C@@H]1C[C@H](C)CC/C=C\[C@@H]2C[C@@]2(C(=O)NS(=O)(=O)C2(C)CC2)NC(=O)[C@@H]2C[C@@H](OC(=O)N3Cc4cccc(F)c4C3)CN2C(=O)[C@H]1NC(=O)OC(C)(C)C` [Compound 1313, (2R,6S,7R,9R,13aS,14aR,16aS,Z)-6-((tert-butoxycarbonyl)amino)-7-ethyl-9-methyl-14a-(((1-methylcyclopropyl)sulfonyl)carbamoyl)-5,16-dioxo-1,2,3,5,6,7,8,9,10,11,13a,14,14a,15,16,16a-hexadecahydrocyclopropa[e]pyrrolo[1,2-a][1,4]diazacyclopentadecin-2-yl 4-fluoroisoindoline-2-carboxylate], in that order: 1.01 to 5 nM and 1.01 to 5 nM.
